Read-outs that look alike come from different tables or passages of the source.
Key:
[1] = solubility of pyrethroid active ingredients in glycol solvents
Description: In the development of active ingredient and solvent formulations, glycols, like glycol-related solvents, have physical and chemical characteristics that would not be considered an aspiration hazard. Evaluations of a range of glycol and modified glycol solvents also involved consideration of a variety of materials in contact with these solvents. […] In addition to considerations of the device, solubility of the active ingredients is a significant consideration on several levels. […] Considerations of not only the solvent material but the concentration levels of particular active ingredients ae necessary to create an efficacious formula compatible with heated repeller devices. […] Incorporating active ingredients at such high levels creates additional solubility challenges which further reduces suitable active ingredient candidates.

[2] = release / vaporization rate through heated wick of dispensing device; type: physicochemical; details: relative to metofluthrin and transfluthrin, in certain test conditions
Description: Once candidate materials are identified, considerations of whether release rates relative to the selected glycols would be sufficient to deliver good spatial mosquito repellency. […] In one embodiment, an approximate 70:30 solvent ratio of two solvents is provided.

mosquitoes = assay: outdoor spatial mosquito repellency
Description: Once candidate materials are identified, considerations of whether release rates relative to the selected glycols would be sufficient to deliver good spatial mosquito repellency. […] In one embodiment, an approximate 70:30 solvent ratio of two solvents is provided. In another aspect, the solvent ratio may be a ratio range such as 60-70:40-30, or 65-70:35-30, wherein the sum of specific glycol amounts totals to 100.

**Q.** For `OCCO` [ethylene glycol], which “solvent quality for insect repellents” value ([1]; some of the insect repellents, particularly prallethrin (FIG. 6)) is on record?
**A.** not good solvents

**Q.** Which release rate capacity [2] does the source give for `OCC(O)CO` [glycerol] here?
**A.** limited release rate capacity

**Q.** With `C/C=C/C1C(C(=O)OCc2c(F)c(F)c(COC)c(F)c2F)C1(C)C` (centres unmarked) [metofluthrin] as the molecule, how does the “zone of mosquito repellency” value (mosquitoes; glycol as solvent, 3-4 Watt heating element) read?
**A.** 20 foot

**Q.** What about the “active ingredient concentration in the formula needed for sufficient outdoor mosquito repellency” value (mosquitoes; outdoors) of the same molecule?
**A.** 4%

**Q.** For `CC(O)CO` (centres unmarked) [propylene glycol], which “solvent quality for insect repellents” value [1] is on record?
**A.** not good solvents
